In the NIST ThermoML archive (doi:10.1021/je060368x):

How the values were obtained:
[1] = excess molar enthalpy (molar enthalpy of mixing); xn = mol fraction of the nth substance listed; conditions: 298.15 K, 101 kPa, Liquid, Flow calorimetry
[2] = xn = mol fraction of the nth substance listed; conditions: 298.15 K, 101 kPa, Liquid
[3] = heat capacity at constant pressure per volume; xn = mol fraction of the nth substance listed; conditions: 298.15 K, 101 kPa, Liquid
[4] = heat capacity at constant pressure per volume; conditions: 298.15 K; 101.33 kPa; Liquid

CCCCCO [pentan-1-ol] + C1CCCCC1
[1]
Conditions | excess molar enthalpy [kcal/mol]
x2 = 0.1 | 0.0357
x2 = 0.2 | 0.0692
x2 = 0.3 | 0.0977
x2 = 0.4 | 0.125
x2 = 0.5 | 0.143
x2 = 0.6 | 0.152
x2 = 0.7 | 0.149
x2 = 0.8 | 0.133
x2 = 0.9 | 0.102

C1CCOCC1 [tetrahydropyran] + CCCCCCO
Conditions | heat capacity, [3] [J/K/m3] | mass density, [2] [kg/m3]
x1 = 0.0523 | 1899000 | 817.49
x1 = 0.1033 | 1883000 | 820.05
x1 = 0.2029 | 1851000 | 825.28
x1 = 0.3021 | 1818000 | 830.74
x1 = 0.4033 | 1782000 | 836.58
x1 = 0.5007 | 1745000 | 842.45
x1 = 0.6013 | 1705000 | 848.93
x1 = 0.7015 | 1662000 | 855.69
x1 = 0.799 | 1616000 | 862.7
x1 = 0.8994 | 1567000 | 870.44
x1 = 0.9482 | 1543000 | 874.45

CCCCCCCCCCO [decan-1-ol] + C1CCOCC1
Conditions | excess molar enthalpy [kcal/mol] | mass density [kg/m3]
[1], x2 = 0.179 | 0.14 | –
[1], x2 = 0.329 | 0.229 | –
[1], x2 = 0.456 | 0.27 | –
[1], x2 = 0.566 | 0.282 | –
[1], x2 = 0.662 | 0.271 | –
[1], x2 = 0.746 | 0.243 | –
[1], x2 = 0.82 | 0.198 | –
[1], x2 = 0.887 | 0.142 | –
[1], x2 = 0.946 | 0.075 | –
[2], x2 = 0.1017 | – | 828.6
[2], x2 = 0.2006 | – | 831.38
[2], x2 = 0.2971 | – | 834.48
[2], x2 = 0.3995 | – | 838.2
[2], x2 = 0.4943 | – | 842.21
[2], x2 = 0.5984 | – | 847.35
[2], x2 = 0.6979 | – | 853.12
[2], x2 = 0.8001 | – | 860.13
[2], x2 = 0.9009 | – | 868.56

CCCCCCCCCO [nonan-1-ol] + C1CCOCC1
Conditions | excess molar enthalpy [kcal/mol] | mass density [kg/m3]
[1], x2 = 0.166 | 0.13 | –
[1], x2 = 0.309 | 0.211 | –
[1], x2 = 0.434 | 0.254 | –
[1], x2 = 0.544 | 0.27 | –
[1], x2 = 0.641 | 0.263 | –
[1], x2 = 0.729 | 0.238 | –
[1], x2 = 0.807 | 0.197 | –
[1], x2 = 0.877 | 0.143 | –
[1], x2 = 0.942 | 0.0767 | –
[2], x2 = 0.0965 | – | 826.81
[2], x2 = 0.1998 | – | 830.22
[2], x2 = 0.2989 | – | 833.75
[2], x2 = 0.3822 | – | 837.11
[2], x2 = 0.497 | – | 842.35
[2], x2 = 0.5969 | – | 847.63
[2], x2 = 0.6983 | – | 853.74
[2], x2 = 0.8 | – | 860.8
[2], x2 = 0.9002 | – | 869.06

C1CCOCC1 [tetrahydropyran] + CCCCCCCCCC
[1]
Conditions | excess molar enthalpy [kcal/mol]
x1 = 0.182 | 0.0908
x1 = 0.333 | 0.143
x1 = 0.461 | 0.165
x1 = 0.571 | 0.17
x1 = 0.666 | 0.16
x1 = 0.75 | 0.141
x1 = 0.823 | 0.115
x1 = 0.889 | 0.0821
x1 = 0.947 | 0.0428

CCCCCCCO [heptan-1-ol] + C1CCCCC1
[1]
Conditions | excess molar enthalpy [kcal/mol]
x2 = 0.127 | 0.0456
x2 = 0.246 | 0.0867
x2 = 0.359 | 0.119
x2 = 0.466 | 0.142
x2 = 0.567 | 0.154
x2 = 0.662 | 0.155
x2 = 0.753 | 0.145
x2 = 0.839 | 0.126
x2 = 0.922 | 0.0956

CCCCCCCCCO [nonan-1-ol] + C1CCCCC1
[1]
Conditions | excess molar enthalpy [kcal/mol]
x2 = 0.152 | 0.0608
x2 = 0.287 | 0.107
x2 = 0.409 | 0.138
x2 = 0.518 | 0.156
x2 = 0.617 | 0.161
x2 = 0.707 | 0.157
x2 = 0.79 | 0.143
x2 = 0.866 | 0.12
x2 = 0.936 | 0.089

C1CCOCC1 [tetrahydropyran]
Conditions | heat capacity [J/K/m3]
[4] | 1519000

CCCCCCCCCCO [decan-1-ol] + C1CCCCC1
[1]
Conditions | excess molar enthalpy [kcal/mol]
x2 = 0.164 | 0.0694
x2 = 0.306 | 0.118
x2 = 0.431 | 0.148
x2 = 0.541 | 0.163
x2 = 0.638 | 0.166
x2 = 0.726 | 0.159
x2 = 0.805 | 0.144
x2 = 0.876 | 0.122
x2 = 0.941 | 0.0902

C1CCOCC1 [tetrahydropyran] + CCCO
Conditions | heat capacity, [3] [J/K/m3] | mass density, [2] [kg/m3]
x1 = 0.0996 | 1875000 | 809.78
x1 = 0.1994 | 1838000 | 819.29
x1 = 0.2873 | 1807000 | 827.18
x1 = 0.3993 | 1766000 | 836.57
x1 = 0.4981 | 1728000 | 844.4
x1 = 0.6011 | 1687000 | 852.07
x1 = 0.7007 | 1646000 | 859.15
x1 = 0.7981 | 1604000 | 865.77
x1 = 0.9007 | 1560000 | 872.46

C1CCOCC1 [tetrahydropyran] + CCCCO
Conditions | heat capacity, [3] [J/K/m3] | mass density, [2] [kg/m3]
x1 = 0.0511 | 1899000 | 809.59
x1 = 0.0976 | 1882000 | 813.23
x1 = 0.1996 | 1847000 | 821.04
x1 = 0.301 | 1811000 | 828.64
x1 = 0.3987 | 1778000 | 835.87
x1 = 0.499 | 1739000 | 843.12
x1 = 0.598 | 1699000 | 850.26
x1 = 0.6994 | 1655000 | 857.46
x1 = 0.7998 | 1610000 | 864.53
x1 = 0.8998 | 1563000 | 871.67
x1 = 0.9501 | 1541000 | 875.22

C1CCOCC1 [tetrahydropyran] + CCCCCCCCO
[2]
Conditions | mass density [kg/m3]
x1 = 0.0533 | 823.35
x1 = 0.0961 | 824.78
x1 = 0.198 | 828.58
x1 = 0.2967 | 832.64
x1 = 0.4014 | 837.39
x1 = 0.5 | 842.3
x1 = 0.599 | 847.86
x1 = 0.7005 | 854.23
x1 = 0.7999 | 861.27
x1 = 0.8989 | 869.3
x1 = 0.9504 | 873.97

C1CCOCC1 [tetrahydropyran] + CCCCCO
Conditions | excess molar enthalpy, [1] [kcal/mol] | heat capacity, [3] [J/K/m3] | mass density, [2] [kg/m3]
x1 = 0.0486 | – | 1898000 | 813.55
x1 = 0.0968 | – | 1881000 | 816.55
x1 = 0.11 | 0.0784 | – | –
x1 = 0.2002 | – | 1846000 | 823.07
x1 = 0.217 | 0.144 | – | –
x1 = 0.2987 | – | 1811000 | 829.33
x1 = 0.323 | 0.19 | – | –
x1 = 0.3966 | – | 1776000 | 835.71
x1 = 0.426 | 0.219 | – | –
x1 = 0.4994 | – | 1738000 | 842.54
x1 = 0.526 | 0.232 | – | –
x1 = 0.5993 | – | 1698000 | 849.33
x1 = 0.625 | 0.228 | – | –
x1 = 0.6972 | – | 1657000 | 856.2
x1 = 0.722 | 0.206 | – | –
x1 = 0.8 | – | 1610000 | 863.59
x1 = 0.816 | 0.165 | – | –
x1 = 0.8983 | – | 1564000 | 870.89
x1 = 0.909 | 0.0978 | – | –
x1 = 0.9495 | – | 1540000 | 874.85

CCCCCCCO [heptan-1-ol] + C1CCOCC1
[2]
Conditions | mass density [kg/m3]
x2 = 0.0514 | 820.57
x2 = 0.1047 | 822.8
x2 = 0.1988 | 826.97
x2 = 0.2987 | 831.67
x2 = 0.4018 | 836.94
x2 = 0.4976 | 842.18
x2 = 0.6005 | 848.37
x2 = 0.6985 | 854.74
x2 = 0.8002 | 861.99
x2 = 0.8989 | 869.83
x2 = 0.9487 | 874.13
